# Experimental data taken from the SangsterLogP compilation.
row,Compound,logP
1,CCCCCCCCCCCC(=O)OCCCC,6.51
2,CCCCCCCCCCCC(=O)OCC(CC)CCCC (stereo not given),8.03
3,CC/C=C\C/C=C\C/C=C\CCCCCCCC(=O)OC,6.29
4,CCCCCCCCCCCC(=O)OCCC,6.11
5,CCCCCCCCCCCCCCCCCCCCCC(=O)OC,10.2
6,CCCCCCCC/C=C\CCCCCCCCCCCC(=O)OC,9.32
7,CCCCC/C=C\C/C=C\CCCCCCCC(=O)OC,6.82

# Now from value to molecule:
row,logP,Compound
1,5.41,CCCCCCCCCCCC(=O)OC
2,6.41,CCCCCCCCCCCCCC(=O)OC
3,9.3,CCCCCCCCCCCCCCCCCCCC(=O)OC
4,8.35,CCCCCCCCCCCCCCCCCC(=O)OC
5,4.42,CCCCCCCCCC(=O)OC
6,5.71,CCCCCCCCCCCC(=O)OCC
7,7.38,CCCCCCCCCCCCCCCC(=O)OC
8,7.45,CCCCCCCC/C=C\CCCCCCCC(=O)OC
